The values below come from PubChem BioAssay AID330 (DTP/NCI, 2004).

The subject of the assay is P388 leukemia ip, CD2F1 mice, survival T/C. Nature of the assay: NCI In Vivo Anticancer Drug Screen. Data for tumor model P388 Leukemia (intraperitoneal) in CD2F1 (CDF1) mice. Particulars: endpoint: median survival time, higher = longer survival. In a few lines:
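Mice carrying the transplanted tumor received test compound or vehicle. Survival was recorded in each group, and the value is the treated-group measurement divided by that of the vehicle-treated control group.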

Setting [1] is: dose: 240.0 mg/kg/injection, schedule: Q01DX005 (ip), vehicle: saline with Tween-80.
Where [2] appears, read: dose: 50.0 mg/kg/injection, schedule: Q01DX005 (ip), vehicle: saline with Tween-80.
[3] abbreviates: dose: 50.0 mg/kg/injection, schedule: Q01DX005 (ip), vehicle: Klucel (hydroxypropylcellulose) (HPC).
Where [4] appears, read: dose: 100.0 mg/kg/injection, schedule: Q01DX005 (ip), vehicle: Klucel (hydroxypropylcellulose) (HPC).
Where [5] appears, read: dose: 200.0 mg/kg/injection, schedule: Q01DX005 (ip), vehicle: Klucel (hydroxypropylcellulose) (HPC).
Setting [6] is: dose: 50.0 mg/kg/injection, schedule: Q01DX009 (ip), vehicle: saline.
Where [7] appears, read: dose: 50.0 mg/kg/injection, schedule: Q01DX009 (ip), vehicle: Klucel (hydroxypropylcellulose) (HPC).
Setting [8] is: dose: 100.0 mg/kg/injection, schedule: Q01DX009 (ip), vehicle: Klucel (hydroxypropylcellulose) (HPC).
Setting [9] is: dose: 100.0 mg/kg/injection, schedule: Q01DX009 (ip), vehicle: saline.

Several values for one entry are separate records, joined by “and”; a condition that tells them apart may be missing. Equal entries are not always repeated. Toxic doses and inconclusive results are not listed.

With `COc1cc(OC)c(/C=N/NC(=S)NC23CC4CC(CC(C4)C2)C3)c(OC)c1`, the T/C (dose: 15.0 mg/kg/injection, schedule: Q01DX005 (ip), vehicle: saline with Tween-80) is 94 % of control; the T/C (dose: 30.0 mg/kg/injection, schedule: Q01DX005 (ip), vehicle: saline with Tween-80) is 97 % of control; the T/C under setting [1] is 89 % of control.

Turning to `O=NC=C1N(O)C=CN1O`, the T/C was 102 % of control (dose: 25.0 mg/kg/injection, schedule: Q01DX009 (ip), vehicle: other); 101 % of control (dose: 50.0 mg/kg/injection, schedule: Q01DX009 (ip), vehicle: other); 97 % of control (dose: 100.0 mg/kg/injection, schedule: Q01DX009 (ip), vehicle: other); 102 % of control (dose: 200.0 mg/kg/injection, schedule: Q01DX009 (ip), vehicle: other); 99 % of control (dose: 400.0 mg/kg/injection, schedule: Q01DX009 (ip), vehicle: other).

Turning to `OCC1OC(O)C(N=Cc2ccc3c(c2)OCO3)C(O)C1O` (stereo not drawn), the T/C by setting is: under setting [2], 104 % of control; (dose: 100.0 mg/kg/injection, schedule: Q01DX005 (ip), vehicle: saline with Tween-80) 100 % of control; (dose: 200.0 mg/kg/injection, schedule: Q01DX005 (ip), vehicle: saline with Tween-80) 102 % of control.

With `O=C1c2cccc(Cl)c2Cc2c(Cl)cccc21`, the T/C is 105 % of control (dose: 100.0 mg/kg/injection, schedule: Q01DX001 (ip), vehicle: saline with Tween-80); 99 % of control (dose: 200.0 mg/kg/injection, schedule: Q01DX001 (ip), vehicle: saline with Tween-80); 92 % of control (dose: 400.0 mg/kg/injection, schedule: Q01DX001 (ip), vehicle: saline with Tween-80).

Take `Cc1onc(-c2c(Cl)cccc2Cl)c1C(=O)OCCOc1ccc(C(F)(F)F)cc1[N+](=O)[O-]`: the T/C is 91 % of control (dose: 60.0 mg/kg/injection, schedule: Q01DX005 (ip), vehicle: saline with Tween-80); 98 % of control (dose: 120.0 mg/kg/injection, schedule: Q01DX005 (ip), vehicle: saline with Tween-80); 92 % of control under setting [1].

Consider `O=C1CSC(c2cccs2)N1c1nncs1` (stereo not drawn), for which the T/C is, setting by setting: (dose: 60.0 mg/kg/injection, schedule: Q01DX005 (ip), vehicle: Klucel (hydroxypropylcellulose) (HPC)) 100 % of control; (dose: 120.0 mg/kg/injection, schedule: Q01DX005 (ip), vehicle: Klucel (hydroxypropylcellulose) (HPC)) 100 % of control; (dose: 240.0 mg/kg/injection, schedule: Q01DX005 (ip), vehicle: Klucel (hydroxypropylcellulose) (HPC)) 172 % of control.

As to `OCC(O)C(O)C(O)C(O)C(O)c1nc2ccccc2[nH]1` (stereo not drawn), the T/C is, setting by setting: under setting [3], 98 % of control; under setting [4], 102 % of control; under setting [5], 100 % of control.

Take `O=C1NC(=O)[C@@]2(CCOc3ccc(F)cc32)N1`: the T/C under setting [3] was 95 % of control, the T/C under setting [4] is 100 % of control and the T/C under setting [5] is 100 % of control.

On to `CC(=O)OC1CCC2C3CCc4cc(OP(=O)(N5CC5)N5CC5)ccc4C3CCC12C` (stereo not drawn), for which the T/C by setting is: (dose: 50.0 mg/kg/injection, schedule: Q01DX009 (ip), vehicle: saline with Tween-80) 92 % of control; (dose: 100.0 mg/kg/injection, schedule: Q01DX009 (ip), vehicle: saline with Tween-80) 114 % of control; (dose: 200.0 mg/kg/injection, schedule: Q01DX009 (ip), vehicle: saline with Tween-80) 108 % of control.

In the case of `OCCN=Cc1ccccc1`, the T/C was 90 % of control (dose: 25.0 mg/kg/injection, schedule: Q01DX009 (ip), vehicle: saline sonified); 104 % of control (dose: 50.0 mg/kg/injection, schedule: Q01DX009 (ip), vehicle: saline sonified); 104 % of control (dose: 100.0 mg/kg/injection, schedule: Q01DX009 (ip), vehicle: saline sonified).

As for `COc1cc2c(N)nc(N3CCN(C(=O)OCC(C)(C)O)CC3)nc2c(OC)c1OC`, the T/C (dose: 50.0 mg/kg/injection, schedule: Q01DX005 (ip), vehicle: suspension in saline) was 95 % of control; the T/C (dose: 100.0 mg/kg/injection, schedule: Q01DX005 (ip), vehicle: suspension in saline) is 100 % of control; the T/C (dose: 200.0 mg/kg/injection, schedule: Q01DX005 (ip), vehicle: suspension in saline) is 113 % of control.

For `Nc1n[nH]c(CO)n1`, the T/C was 95 % of control (dose: 6.25 mg/kg/injection, schedule: Q01DX009 (ip), vehicle: saline); 91 % of control (dose: 12.5 mg/kg/injection, schedule: Q01DX009 (ip), vehicle: saline); 104 % of control (dose: 25.0 mg/kg/injection, schedule: Q01DX009 (ip), vehicle: saline); 99 % of control under setting [6].

Take `CN(C)CCC(=O)c1ccc(Cl)c(Cl)c1`: the T/C is, setting by setting: under setting [7], 107 % of control; under setting [6], 108 % of control; under setting [8], 109 % of control; under setting [9], 110 % of control; (dose: 200.0 mg/kg/injection, schedule: Q01DX009 (ip), vehicle: saline) 109 % of control.

`CC(NC(=O)C1CCCN1C(=O)OC(C)(C)C)C(=O)OCc1ccccc1` (stereo not drawn): the T/C by setting is: (dose: 50.0 mg/kg/injection, schedule: Q01DX005 (ip), vehicle: saline + Tween-80 + alcohol) 98 % of control; (dose: 100.0 mg/kg/injection, schedule: Q01DX005 (ip), vehicle: saline + Tween-80 + alcohol) 98 % of control; (dose: 200.0 mg/kg/injection, schedule: Q01DX005 (ip), vehicle: saline + Tween-80 + alcohol) 99 % of control.

For `Cc1cc2ccccc2c[n+]1CCCCCCCCI`, the T/C is 110 % of control (dose: 6.25 mg/kg/injection, schedule: Q01DX005 (ip), vehicle: saline with Tween-80); 115 % of control (dose: 12.5 mg/kg/injection, schedule: Q01DX005 (ip), vehicle: saline with Tween-80); 110 % of control (dose: 25.0 mg/kg/injection, schedule: Q01DX005 (ip), vehicle: saline with Tween-80); 108 % of control under setting [2].

With `O=C(O)CCN1c2ccccc2Sc2ccccc21`, the T/C under setting [7] was 89 % of control; the T/C under setting [8] was 100 % of control; the T/C (dose: 200.0 mg/kg/injection, schedule: Q01DX009 (ip), vehicle: Klucel (hydroxypropylcellulose) (HPC)) is 99 % of control; the T/C (dose: 400.0 mg/kg/injection, schedule: Q01DX009 (ip), vehicle: Klucel (hydroxypropylcellulose) (HPC)) was 101 % of control.

Turning to `CN(C)C(=O)SC1=C(c2c(Cl)cccc2Cl)C(=O)c2ccccc21`, the T/C is, setting by setting: under setting [3], 108 % of control and 112 % of control; under setting [4], 99 % of control and 112 % of control; under setting [5], 121 % of control and 122 % of control.

Consider `O=C(O)C1CSC(c2cccnc2)N1` (stereo not drawn), for which the T/C is 89 % of control under setting [6] and 90 % of control under setting [9].

`C/C(N)=N/OC(c1ccccc1)(c1ccccc1)c1ccccc1`: the T/C is 94 % of control (dose: 50.0 mg/kg/injection, schedule: Q01DX005 (ip), vehicle: Klucel + Tween-80); 90 % of control (dose: 100.0 mg/kg/injection, schedule: Q01DX005 (ip), vehicle: Klucel + Tween-80); 93 % of control (dose: 200.0 mg/kg/injection, schedule: Q01DX005 (ip), vehicle: Klucel + Tween-80).

On to `C[C@@H]1CC[C@]2(C)CC[C@]3(C)C(=CC[C@@H]4[C@@]5(C)CC[C@H](O)C(C)(C)[C@@H]5CC[C@]43C)[C@@H]2[C@H]1C(=O)O`, for which the T/C by setting is: (dose: 0.5 mg/kg/injection, schedule: Q01DX005 (ip), vehicle: DMSO) 99 % of control; (dose: 1.0 mg/kg/injection, schedule: Q01DX005 (ip), vehicle: DMSO) 101 % of control; (dose: 2.0 mg/kg/injection, schedule: Q01DX005 (ip), vehicle: DMSO) 100 % of control; (dose: 4.0 mg/kg/injection, schedule: Q01DX005 (ip), vehicle: DMSO) 100 % of control and 108 % of control; (dose: 8.0 mg/kg/injection, schedule: Q01DX005 (ip), vehicle: DMSO) 98 % of control.
